Key:
Aβ42 [1] = assay: Method 2: Aβ42 Alphalisa in supernatant of SKNBE2 cells carrying APP 695-wild type (Table 7c); assay type: cell-based; conditions: Method 2, Alphalisa, overnight incubation
Method in brief: (§1)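 SKNBE2 cells expressing wild-type APP695 incubated overnight at 37° C with test compound, 10^4 cells/well. Supernatant Aβ42 (C-terminal JRF/cAβ42/26 with N-terminal JRF/AβN/25) and Aβtotal (JRF/AβN/25 with 4G8) quantified by AlphaLISA. IC50 from 4-parameter fit of percent of untreated control.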

Aβtotal [2] = assay: In vivo efficacy: Aβtotal lowering in brain after single oral dose (Table 8); conditions: mouse brain soluble fraction, ELISA, compared to untreated animals
Description: (§2) To determine whether acute administration of an Aβ42 lowering agent would reduce Aβ42 levels in vivo, non-transgenic rodents, e.g. mice or rats were used. Alternatively, two to three month old Tg2576 mice expressing APP695 containing the “Swedish” variant can be used or a transgenic mouse model developed by Dr. Fred Van Leuven (K.U.Leuven, Belgium) and co-workers, with neuron-specific expression of a clinical mutant of the human amyloid precursor protein [V7171] (Moechars et al., 1999 J. Biol. Chem. 274, 6483). Young transgenic mice have high levels of Aβ in the brain but no detectable Aβ deposition. At approximately 6-8 months of age, the transgenic mice start to display spontaneous, progressive accumulation of β-amyloid (Aβ) in the brain, eventually resulting in amyloid plaques within the subiculum, hippocampus and cortex. Animals treated with the Aβ42 lowering agent were examined and compared to those untreated or treated with vehicle and brain levels of soluble Aβ42 and total Aβ would be quantitated by standard techniques, for example, using ELISA. Treatment periods varied from hours to days and were adjusted based on the results of the Aβ42 lowering once a time course of onset of effect could be established.
(§3) A typical protocol for measuring Aβ42 lowering in vivo is shown but it is only one of many variations that could be used to optimize the levels of detectable Aβ. For example, Aβ42 lowering compounds were formulated in 20% of Captisol® (a sulfobutyl ether of β-cyclodextrin) in water or 20% hydroxypropyl β cyclodextrin. The Aβ42 lowering agents were administered as a single oral dose or by any acceptable route of administration to overnight fasted animals. After four hours, the animals were sacrificed and Aβ42 levels were analysed.
(§4) Blood was collected by decapitation and exsanguinations in EDTA-treated collection tubes. Blood was centrifuged at 1900 g for 10 min at 4° C. and the plasma recovered and flash frozen for later analysis. The brain was removed from the cranium and hindbrain. The cerebellum was removed and the left and right hemisphere were separated. The left hemisphere was stored at −18° C. for quantitative analysis of test compound levels. The right hemisphere was rinsed with phosphate-buffered saline (PBS) buffer and immediately frozen on dry ice and stored at −80° C. until homogenization for biochemical assays.
(§5) Mouse brains were resuspended in 10 volumes of 0.4% DEA (diethylamine)/50 mM NaCl pH 10 (for non-transgenic animals) or 0.1% 3-[(3-cholamidopropyl)-dimethyl-ammonio]-1-propanesulfonate (CHAPS) in tris buffered saline (TBS) (for transgenic animals) containing protease inhibitors (Roche-11873580001 or 04693159000 per gram of tissue, e.g. for 0.158 g brain, add 1.58 ml of 0.4% DEA. All samples were sonicated for 30 sec on ice at 20% power output (pulse mode). Homogenates were centrifuged at 221.300×g for 50 min. The resulting high speed supernatants were then transferred to fresh tubes and were optionally further purified before the next step. A portion of the supernatant was neutralized with 10% 0.5 M Tris-HCl and this was used to quantify Aβtotal.
(§6) The obtained supernatants were purified with Water Oasis HLB reverse phase columns (Waters Corp., Milford, Mass.) to remove non-specific immunoreactive material from the brain lysates prior subsequent Aβ detection. Using a vacuum manifold, all solutions were passed through the columns at a rate of approximately 1 ml per minute, so the vacuum pressure was adjusted accordingly throughout the procedure. Columns were preconditioned with 1 ml of 100% MeOH, before equilibration with 1 ml of H2O. Non-neutralized brain lysates were loaded onto the columns. The loaded samples were then washed twice with the first wash performed with 1 ml of 5% MeOH, and the second wash with 1 ml of 30% MeOH. Finally, the Aβ was eluted from the columns and into 100×30 mm glass tubes, with a solution of 90% MeOH with 2% NH4OH. […]

Aβtotal [3] = assay: Method 2: Aβtotal Alphalisa in supernatant of SKNBE2 cells carrying APP 695-wild type (Table 7c); assay type: cell-based; conditions: Method 2, Alphalisa, overnight incubation
Method in brief: as §1

Aβ42 [4] = assay: In vivo efficacy: Aβ42 lowering in brain after single oral dose (Table 8); conditions: mouse brain soluble fraction, ELISA, compared to untreated animals
Description: as §2, §3, §4, §5, §6

| Compound | IC50 (Aβ42 [1]; Homo sapiens) [nM] | Aβtotal (% Ctrl)_Mean (Aβtotal [2]) [% Ctrl] | IC50 (Aβtotal [3]; Homo sapiens) [nM] | Aβ42 (% Ctrl)_Mean (Aβ42 [4]) [% Ctrl] | IC50 (Aβ42 [1]) [nM] | IC50 (Aβtotal [3]) [nM] |
| --- | --- | --- | --- | --- | --- | --- |
| Cc1ncoc1-c1ccc(Nc2cccc3c2nc(-c2ccc(F)cc2)n3C)nc1 [Compound 10] | 1740 | 109 | > 10000 | 106 |  |  |
| COc1cc(Nc2cccc3c2nc(CCC(F)(F)F)n3C)ccc1-c1ocnc1C [Compound 11] | 363 | 99 | > 10000 | 91 |  |  |
| COc1cc(Nc2cccc3c2nc(-c2ccc(F)cc2)n3C)ccc1-c1ocnc1C [Compound 12] | 35 | 101 | 7760 | 56 |  |  |
| COc1cc(Nc2cccc3c2nc(-c2ccc(F)cc2)n3C)ccc1-c1cnc(C)o1 [Compound 16] | 16 | 95 | 8710 | 58 |  |  |
| Cc1ncc(-c2ccc(Nc3nccc4c3nc(-c3ccc(F)cc3)n4C)cc2F)o1 [Compound 17] | 166 | 109 | > 10000 | 106 |  |  |
| Cc1ncc(-c2ccc(Nc3cccc4c3nc(-c3ccc(F)cc3)n4C(C)C)cn2)o1 [Compound 18] | 20 | 94 | 6460 | 54 |  |  |
| COc1cccc(-c2nc3c(Nc4ccc(-c5cnc(C)o5)nc4)cc(F)cc3n2C)c1 [Compound 105] |  | 96 |  | 104 | 14 | > 10000 |
| COc1cc(Nc2nc(C(F)(F)F)cn3cc(C)nc23)ccc1-c1cnc(C)o1 [Compound 170] |  | 99 |  | 99 | 7410 | > 10000 |
| COc1cc(Nc2cncc3c2nc(-c2ccc(F)cc2)n3C)ccc1-c1cnc(C)o1 [Compound 186] |  | 82 |  | 52 | 41 | > 10000 |
| COc1cc(Nc2cc(C(F)(F)F)nn3cc(C)nc23)ccc1-c1cnc(C)o1 [Compound 195] |  | 99 |  | 89 | 282 | > 10000 |

Source: US8946426B2, “Substituted bicyclic heterocyclic compounds as gamma secretase modulators” (Janssen Pharmaceuticals, Inc., priority 2009, dated 2015)
